In PMC6358909, “Synthesis and Biochemical Evaluation of Lid-Open D-Amino Acid Oxidase Inhibitors” (Molecules, 2019):

Experiments:
Human DAAO = biological target: T1, Human DAAO (Homo sapiens, UniProt P14920); experiment: KYNA enzyme inhibition assay (D-kynurenine substrate, fluorescence); format: biochemical; settings: 5 µM FAD, pH 8, 37 °C 1 h, standard deviations in parenthesis
T1 construct: purchased TargetEx Ltd. (Dunakeszi, Hungary)
Procedure: The prepared compounds were tested as DAAO inhibitors with the KYNA enzyme inhibitory assay. Although D-serine is a natural substrate of DAAO, its metabolite is not suitable for fluorometric evaluation. However in the applied assay, D-kynurenine can be metabolized by DAAO [19] and the metabolite (KYNA) has a favorable fluorescence property. Thus it can be used for fluorescence measurements.
D-2-Amino-4-(2-aminophenyl)-4-oxobutanoic acid (D-KYN) was used to measure D-amino acid oxidase activity based on the protocol described in ref. [18, 20]. Human DAAO (purchased from TargetEx Ltd. (Dunakeszi, Hungary)) was used for the measurements. The buffer contained 20 mM TRIS-HCl and 100 mM NaCl (pH = 8). Flavin adenine dinucleotide (FAD—obtained from Sigma (St. Louis, MO, USA)) in 5 µM concentration was also included in the assay. Compounds were dissolved originally in DMSO and the measured samples were diluted with the buffer solution (the final DMSO concentration was always below 5%). The mixed solution was incubated at 37 °C for 1 h. After the enzymatic reaction, ZnCl2 dissolved in H2O was added and vortex-mixed. Single point measurements were performed at 20 µm inhibitor concentration. For the IC50 measurements, the inhibitors were used at 5 nM, 50 nM, 500 nM, 2.5 µM, 5 µM, 10 µM, 50 µM. Measurements were carried out on a Citation3 cell imaging multi-mode microplate reader (BioTek Instruments Inc., Winooski, VT, USA) with […]. The applied wavelengths were 340 nm and 396 nm.
Result from the coupled HRP/Amplex Red assay for compound 13
Compound 13 was evaluated in both the KYNA and the coupled HRP/Amplex red assays. Assay […]
HRP/Amplex assay KYNA assay […]
hDAAO original concentration 1 µg / 1500 µL buffer 1 µg / 400 µL buffer hDAAO assay concentration 0.25 µg / 1500 µL buffer 0.25 µg / 400 µL buffer FAD conc. in assay 5 µM 5 µM
Ligand conc. in assay 20 µM 20 µM
Incubation period No Yes (1 hour, 37 °C)
Type of the measurement Kinetic (45 min) single point detection
Detection fluorescent fluorescent
Assay interference Yes No
Ligand autofluorescence No No
Dose response curve obtained for compound 13 using the HRP/Amplex red assay
(1 picture or pasted object on this page, not shown here)

hDAO = hDAO (Homo sapiens, UniProt P14920); experiment: Differential scanning fluorimetry (DSF) measurement; format: binding; settings: for Tm: hDAO without inhibitor 59.4 °C; for ~ΔTm: shift versus hDAO without inhibitor
hDAO, sequence (P14920 whole entry): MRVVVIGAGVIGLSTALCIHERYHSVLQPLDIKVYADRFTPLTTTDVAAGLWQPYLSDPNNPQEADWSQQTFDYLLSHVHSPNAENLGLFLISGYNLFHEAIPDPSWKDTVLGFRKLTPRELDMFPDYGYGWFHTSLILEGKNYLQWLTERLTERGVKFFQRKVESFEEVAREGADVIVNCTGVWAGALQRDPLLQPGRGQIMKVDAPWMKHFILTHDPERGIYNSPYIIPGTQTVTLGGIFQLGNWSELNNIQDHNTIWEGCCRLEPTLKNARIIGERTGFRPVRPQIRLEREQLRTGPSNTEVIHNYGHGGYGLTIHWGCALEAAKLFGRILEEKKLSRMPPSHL
Procedure: We started with compounds 8 and 9 (Figure 3). […] The activity of this 3-Cl substituted derivative (11) was lower than 100 nM therefore we synthesized the 3-Me derivative (12). […] DAAO binding and activity of representative compounds have been confirmed in orthogonal differential scanning fluorometry (DSF) and the coupled Horseradish peroxidase (HRP)/Amplex Red assays, respectively (see Supplementary materials). The designed compounds were docked into the protein structure obtained from the complex of 8 by the removal of the ligand. […]
Scheme S4. Synthesis of the headgroup […]
Results from differential scanning fluorimetry (DSF) measurements
Compound Structure DSF measurement […]

DAAO = system: DAAO; design: method as in PMID 25001371; settings: cited from earlier work

T1 sequence (P14920 whole entry): as above

| Structure (SMILES) | IC50 (Human DAAO) [nM] | Tm (hDAO) [°C] | ~ΔTm (hDAO) [°C] | competitive D-serine inhibitory properties (DAAO) |
| --- | --- | --- | --- | --- |
| O=c1cc(-c2ccc(Cl)cc2)c2cc(CCc3cc(O)c(=O)[nH]n3)c(O)cc2o1 [Compound 9] | 119 |  |  |  |
| O=C(O)CCc1cc2c(-c3ccccc3)cc(=O)oc2cc1O [Compound 7] |  |  |  | low nanomolar range |
| O=c1cc(-c2ccccc2)c2cc(CCc3cc(O)c(=O)[nH]n3)c(O)cc2o1 [Compound 8, reference compound] | 112 | 74.7 | ~15.3 |  |

Further lines, with some results ahead:

| IC50 (Human DAAO) [nM] | Tm (hDAO) [°C] | ~ΔTm (hDAO) [°C] | Structure (SMILES) | competitive D-serine inhibitory properties (DAAO) |
| --- | --- | --- | --- | --- |
| 69 |  |  | O=c1cc(-c2cccc(Cl)c2)c2cc(CCc3cc(O)c(=O)[nH]n3)c(O)cc2o1 [Compound 11] |  |
| 52 |  |  | Cc1cccc(-c2cc(=O)oc3cc(O)c(CCc4cc(O)c(=O)[nH]n4)cc23)c1 [Compound 12] |  |
| 73 | 72.0 | ~12.6 | COc1cccc(-c2cc(=O)oc3cc(O)c(CCc4cc(O)c(=O)[nH]n4)cc23)c1 [Compound 13] |  |
| 474 |  |  | Cc1ccc(-c2cc(=O)oc3cc(O)c(CCc4cc(O)c(=O)[nH]n4)cc23)cc1 [Compound 10] |  |
